Eleven molecules from patent US20090170901A1, “Benzoyl Urea Derivatives” (priority 2004, published 2009) can be followed below.

The target in assay [1] is T1, NR1a/NR2B NMDA receptor (Rattus norvegicus, UniProt P35439+Q00960).
T1 construct: expressed in transfected cells
Briefly: Functional NMDA antagonism, fluorimetric intracellular calcium measurement on HEK293 cells expressing NR1a/NR2B. It counts as cell-based. How it is done:
Compounds were tested for their inhibitory action on NMDA evoked cytosolic calcium elevations in fluorescent calcium measurements. Studies were performed 48-72 h after addition of the inducing agent. Ketamine (500 μM) was also present during the induction in order to prevent cytotoxicity.
(§1) Assessing the Functional NMDA Antagonist Potency of Compounds on HEK293 cells expressing Recombinant NMDA Receptors Based on Measuring the Intracellular Calcium Concentration Using a Fluorimeter Plate Reader
Since NMDA receptors are known to be permeable to calcium ions upon excitation, the extent of NMDA receptor activation, and its inhibition by functional antagonists can be characterised by measuring the rise in the intracellular calcium concentration following agonist (NMDA) application onto the cells.
The intracellular calcium measurements are carried out on HEK293 cells expressing NR1a and NR2B or NR2A NMDA receptor subunits.
(§2) Loading is stopped by washing twice with the solution used also during the measurement (140 mM NaCl 5 mM KCl, 2 mM CaCl2, 5 mM HEPES [4-(2-hydroxyethyl)-1-piperazineethane-sulfonic acid], 5 mM HEPES—Na, 20 mM glucose, 10 μM glycine, pH=7.4). Then the test compound dissolved in the above solution (90 μl/well) is added. Intracellular calcium measurements are carried out with a plate reader fluorimeter. A rise in Fluo-4-fluorescence that reflects the intracellular calcium concentration is induced by application of 200 μM NMDA. Inhibitory potency of the test compound is assessed by measuring the reduction in the calcium elevation in the presence of different concentrations of the compound.
(§3) Inhibitory potency of a compound at a single concentration point is expressed as percent inhibition of the control NMDA response. For NR1a/NR2B expressing cells concentration-inhibition curves are produced. Sigmoidal concentration-inhibition curves are fitted over the data and IC50 values are defined as the concentration that produces half of the maximal inhibition that could be achieved with the compound. Mean IC50 values are derived from at least three independent experiments. For NR1-3/NR2A expressing cells antagonism of NMDA induced rise in intracellular calcium concentration by compounds of the present invention and reference compounds was tested at 10 and 15 microM concentration, respectively.

Assay [2] has as its target T2, NR1-3/NR2A NMDA receptor (Homo sapiens, UniProt Q05586+Q12879).
T2 construct: expressed in transfected cells
Description: Functional NMDA antagonism, fluorimetric intracellular calcium measurement on HEK293 cells expressing NR1-3/NR2A. It counts as cell-based. The following applies: NMDA evoked calcium rise, NR1-3/NR2A transfected HEK293 cells; for inhibition at 15 µM: Table 1, 15 uM compound. How it is done: (1997); Neurochemistry International, 43, 19-29. (2003)]. […] Compounds were tested for their inhibitory action on NMDA evoked cytosolic calcium elevations in fluorescent calcium measurements. Studies were performed 48-72 h after addition of the inducing agent. Ketamine (500 μM) was also present during the induction in order to prevent cytotoxicity.
as §1
Since NMDA receptors are known to be permeable to calcium ions upon excitation, the extent of NMDA receptor activation, and its inhibition by functional antagonists can be characterised by measuring the rise in the intracellular calcium concentration following agonist (NMDA) application onto the cells. Since there is very high sequence homology between rat and human NMDA receptors (99, 95, 97% for NR1, NR2A, and NR2B subunits, respectively), it is believed that there is little, if any, difference in their pharmacological sensitivity.
The intracellular calcium measurements are carried out on HEK293 cells expressing NR1a and NR2B or NR2A NMDA receptor subunits. Cells are plated onto standard 96-well microplates and the cultures are maintained in an atmosphere of 95% air-5% CO2 at 37° C. until testing.
as §2, with “The cells are loaded with a fluorescent Ca^2+-sensitive dye, Fluo-4/AM (2-2.5 μM) prior to testing. Loading” for “Loading”
as §3
(In general: A change in cytosolic calcium serves as a functional read-out for many receptors and channels.)

For assay [3], the system named is NMRI mice. Briefly: Mouse formalin test (second phase) for in vivo efficacy. The following applies: for ED50 at 20 mg/kg: Mus musculus, po.
Where [4] appears, read: Table 2, reference compounds, 10 uM compound.
[5] abbreviates: given 15 min before formalin, licking/biting time 20 to 25 min after formalin, >20 means inhibition less than 50% at 20 mg/kg p.o.
Setting [6] is: ip, mouse formalin test, read-out: ED50.
Setting [7] is: Table 1, inhibition of calcium rise induced by 200 μM NMDA, NR1a/NR2B transfected HEK293 cells, read-out: NR1a/NR2B IC50.

The structures appear in SMILES notation. pIC50: −log10 of the molar value. Read-outs that look alike come from different tables or passages of the source.

T2 sequence (Q12879 23-1464, other chains not shown): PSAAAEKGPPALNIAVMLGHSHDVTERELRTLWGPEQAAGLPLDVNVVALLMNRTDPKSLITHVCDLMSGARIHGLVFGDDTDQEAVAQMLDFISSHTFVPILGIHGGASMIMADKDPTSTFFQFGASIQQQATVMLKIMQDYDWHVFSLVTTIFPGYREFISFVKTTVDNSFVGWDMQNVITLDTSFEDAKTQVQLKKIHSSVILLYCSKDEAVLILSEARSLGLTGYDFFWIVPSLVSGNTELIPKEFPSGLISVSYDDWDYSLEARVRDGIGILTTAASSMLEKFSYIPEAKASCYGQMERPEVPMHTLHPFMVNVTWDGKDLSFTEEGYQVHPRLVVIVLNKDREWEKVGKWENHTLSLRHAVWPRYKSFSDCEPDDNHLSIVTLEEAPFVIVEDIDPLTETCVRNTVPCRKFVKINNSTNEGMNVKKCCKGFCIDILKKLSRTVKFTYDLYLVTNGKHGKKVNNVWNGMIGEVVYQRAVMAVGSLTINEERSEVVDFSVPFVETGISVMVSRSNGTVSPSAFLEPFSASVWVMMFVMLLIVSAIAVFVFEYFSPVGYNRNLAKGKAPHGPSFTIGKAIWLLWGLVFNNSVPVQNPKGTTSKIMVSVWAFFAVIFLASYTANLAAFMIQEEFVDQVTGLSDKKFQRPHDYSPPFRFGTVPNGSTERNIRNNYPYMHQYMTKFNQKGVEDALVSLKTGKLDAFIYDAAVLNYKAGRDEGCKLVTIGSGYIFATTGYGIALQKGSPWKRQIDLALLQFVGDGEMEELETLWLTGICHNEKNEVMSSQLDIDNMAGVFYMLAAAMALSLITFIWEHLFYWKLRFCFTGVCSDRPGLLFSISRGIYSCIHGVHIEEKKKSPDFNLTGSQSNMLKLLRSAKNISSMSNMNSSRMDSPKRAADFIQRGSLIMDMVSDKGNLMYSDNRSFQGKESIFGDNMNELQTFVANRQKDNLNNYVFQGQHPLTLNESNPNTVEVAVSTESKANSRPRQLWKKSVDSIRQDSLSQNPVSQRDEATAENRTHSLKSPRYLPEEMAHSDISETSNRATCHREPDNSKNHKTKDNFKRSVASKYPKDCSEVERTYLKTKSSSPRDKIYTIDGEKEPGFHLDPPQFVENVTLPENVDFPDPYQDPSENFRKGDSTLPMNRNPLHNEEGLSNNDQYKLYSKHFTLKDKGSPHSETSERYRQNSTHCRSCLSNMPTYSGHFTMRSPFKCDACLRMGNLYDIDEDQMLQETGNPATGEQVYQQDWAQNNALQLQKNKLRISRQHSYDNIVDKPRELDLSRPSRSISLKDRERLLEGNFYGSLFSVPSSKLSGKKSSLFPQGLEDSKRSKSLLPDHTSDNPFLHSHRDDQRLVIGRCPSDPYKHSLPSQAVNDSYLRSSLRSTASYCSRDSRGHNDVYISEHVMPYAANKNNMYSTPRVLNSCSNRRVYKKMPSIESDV
T1 sequence (Q00960 27-1482, other chains not shown): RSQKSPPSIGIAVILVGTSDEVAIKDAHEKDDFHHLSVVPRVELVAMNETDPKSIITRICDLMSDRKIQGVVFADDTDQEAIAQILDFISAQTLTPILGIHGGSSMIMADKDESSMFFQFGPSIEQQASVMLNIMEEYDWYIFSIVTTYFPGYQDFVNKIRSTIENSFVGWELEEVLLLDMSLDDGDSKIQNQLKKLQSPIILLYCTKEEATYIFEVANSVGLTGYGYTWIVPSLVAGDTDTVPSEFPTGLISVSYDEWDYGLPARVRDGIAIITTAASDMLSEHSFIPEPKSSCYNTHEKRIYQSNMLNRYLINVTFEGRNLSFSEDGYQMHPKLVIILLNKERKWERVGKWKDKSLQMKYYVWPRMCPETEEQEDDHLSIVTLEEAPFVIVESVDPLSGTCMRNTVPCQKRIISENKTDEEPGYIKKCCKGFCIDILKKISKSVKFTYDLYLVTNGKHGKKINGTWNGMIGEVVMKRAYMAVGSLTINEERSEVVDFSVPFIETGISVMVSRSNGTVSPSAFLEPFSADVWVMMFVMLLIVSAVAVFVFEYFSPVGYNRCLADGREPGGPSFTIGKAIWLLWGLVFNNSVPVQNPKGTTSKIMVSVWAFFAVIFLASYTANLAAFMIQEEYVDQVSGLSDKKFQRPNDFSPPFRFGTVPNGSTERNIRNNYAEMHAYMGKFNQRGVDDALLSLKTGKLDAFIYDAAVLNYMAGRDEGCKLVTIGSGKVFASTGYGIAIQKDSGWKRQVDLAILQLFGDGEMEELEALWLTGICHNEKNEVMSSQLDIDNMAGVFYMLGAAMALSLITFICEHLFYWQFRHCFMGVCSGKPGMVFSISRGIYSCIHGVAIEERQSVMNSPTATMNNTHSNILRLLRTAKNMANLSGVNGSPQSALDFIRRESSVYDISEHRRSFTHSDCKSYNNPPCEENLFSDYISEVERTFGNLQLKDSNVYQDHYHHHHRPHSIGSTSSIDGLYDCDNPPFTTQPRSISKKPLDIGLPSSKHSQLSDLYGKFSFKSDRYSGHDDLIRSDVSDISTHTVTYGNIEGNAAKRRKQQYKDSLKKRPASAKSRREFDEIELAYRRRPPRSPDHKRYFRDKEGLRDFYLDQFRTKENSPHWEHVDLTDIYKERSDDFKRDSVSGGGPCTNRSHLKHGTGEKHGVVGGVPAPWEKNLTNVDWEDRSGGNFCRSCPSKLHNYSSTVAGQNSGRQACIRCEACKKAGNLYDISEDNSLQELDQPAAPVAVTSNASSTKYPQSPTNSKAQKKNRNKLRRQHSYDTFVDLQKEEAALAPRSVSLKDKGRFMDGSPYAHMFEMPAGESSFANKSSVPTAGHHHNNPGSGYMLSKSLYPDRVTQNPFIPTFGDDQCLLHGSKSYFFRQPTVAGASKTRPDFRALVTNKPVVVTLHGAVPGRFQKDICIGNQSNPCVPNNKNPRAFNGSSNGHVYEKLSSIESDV

Turning to `C[C@@H](CN1CCC(Cc2ccccc2)CC1)[C@@H](O)c1ccc(O)cc1` [Ro 25.6981, R—(R*,S*)-1-(4-hydroxyphenyl)-2-methyl-3-[4-(phenylmethyl)piperidin-1-yl]-1-propanol, reference compound], the pIC50 in assay [1] was 7.24. Also, the inhibition at 10 µM in assay [2] (setting [4]) is 1%. In addition, in assay [3] (setting [5]), the ED50 at 20 mg/kg was greater than 20 mg/kg. For the same molecule, the ED50 in assay [3] (setting [6]) came to 5.1 mg/kg.
The molecule `Cc1ccc(CC2(O)CCN(CCOc3ccc(O)cc3)CC2)cc1` [Co-101244, 1-[2-(4-hydroxyphenoxy)ethyl]-4-hydroxy-4-(4-methylbenzyl)piperidine] displayed an ED50 at 20 mg/kg in assay [3] (setting [5]) greater than 20 mg/kg. Moreover, the ED50 in assay [3] (setting [6]) was 5.9 mg/kg.
For the molecule `O=C(CCN1CCC(Cc2ccc(F)cc2)CC1)c1ccc2[nH]c(=O)oc2c1` [EMD 95885, reference compound], the pIC50 in assay [1] (Table 2, reference compounds, inhibition of calcium rise induced by 200 μM NMDA, NR1a/NR2B transfected HEK293 cells, read-out: NR1a/NR2B IC50) was 7.32. In addition, the “NR1-3/NR2A % inhibition at 10 uM” value in assay [2] (setting [4]) turned out to be 0.1%. Besides, in assay [3] (p.o., given 15 min before formalin, licking/biting time 20 to 25 min after formalin, >20 means inhibition less than 50% at 20 mg/kg p.o.), the 50% effective dose (ED50) came to 3.7 mg/kg.
For the molecule `O=C(NC(=O)N1CCC(Cc2ccccc2)CC1)c1ccc2[nH]c(=O)oc2c1` [Example 7, 4-Benzyl-piperidine-1-carboxylic Acid (2-oxo-2,3-dihydro-benzooxazole-6-carbonyl)-amide], in assay [1] (setting [7]), the pIC50 is 7.22. Further, in assay [2], the inhibition at 15 µM is -6.7%.
On to `C[C@@H]([C@@H](O)c1ccc(O)cc1)N1CCC(O)(c2ccccc2)CC1` [CP 101,606, (1S,2S)-1-(4-hydroxyphenyl)-2-(4-hydroxy-4-phenylpiperidine-1-yl)-1-propanol], for which the ED50 at 20 mg/kg in assay [3] (setting [5]) was greater than 20 mg/kg.
For the molecule `COc1ccc(CC2CCN(C(=O)NC(=O)c3ccc(O)cc3)CC2)cc1` [Example 2, 4-(4-Methoxy-benzyl)-piperidine-1-carboxylic Acid 4-hydroxy-benzoylamide], in assay [1] (setting [7]), the pIC50 was 8.12. In addition, in assay [2], the inhibition at 15 µM was -5.7%.
On to `COc1cccc(CC2CCN(C(=O)NC(=O)c3ccc(O)cc3)CC2)c1` [Example 26, 4-(3-Methoxy-benzyl)-piperidine-1-carboxylic Acid 4-hydroxy-benzoylamide], for which the pIC50 in assay [1] (setting [7]) was 7.23. The inhibition at 15 µM in assay [2] was -0.9%.
In the case of `O=c1[nH]c2ccc([S+]([O-])CCN3CCC(Cc4ccc(F)cc4)CC3)cc2o1` (centres unmarked) [CI-1041, 6-{2-[4-(4-fluoro-benzyl)-piperidin-1-yl]-ethanesulfinyl}-3H-benzooxazol-2-one], in assay [3] (setting [5]), it took a dose of 2.4 mg/kg to reach the 50% effect level (ED50 at 20 mg/kg).
As for `Cc1ccc(CCC2CCN(C(=O)NC(=O)c3ccc(O)cc3)CC2)cc1` [Example 27, 4-[2-(p-Tolyl)-ethyl]-piperidine-1-carboxylic acid 4-hydroxy-benzoylamide], the pIC50 in assay [1] (setting [7]) was 7.84. The inhibition at 15 µM in assay [2] was 11.4%.
On to `O=C(NC(=O)N1CCC(Cc2ccccc2)CC1)c1ccc(O)cc1` [Example 1, 4-Benzyl-piperidine-1-carboxylic Acid 4-hydroxy-benzoylamide], for which the pIC50 in assay [1] (setting [7]) was 7.55. The inhibition at 15 µM in assay [2] came out at 2.6%.
As for `O=C(NC(=O)N1CCC(CSc2ccccc2)CC1)c1ccc(O)cc1` [Example 28, 4-(Phenylthio-methyl)-piperidine-1-carboxylic Acid 4-hydroxy-benzoylamide], the pIC50 in assay [1] (setting [7]) is 7.23. Also, the inhibition at 15 µM in assay [2] is -2.9%.

Broadly, the inhibition is the change of the read-out against control, counted positive when it falls. In general, ED50 refers to the midpoint of the dose-response relation.
